From patent US4999371A, “Substituted 3,4-dihydro-2H-benzopyrans, processes for their preparation, their use and pharmaceutical products based on these compounds” (Hoechst Aktiengesellschaft, priority 1987, dated 1991)

Test system: Langendorff heart preparation
Assay: Coronary flow in the Langendorff heart preparation of Guinea pigs
Conditions: 6 heart preparations
Description: Coronary flow in the Langendorff heart preparation of Guinea pigs
Guinea pigs of either sex were killed by a blow on the head. The hearts were quickly removed and perfused according to Langendorff (Langendorff, Pflugers Arch. Ges. Physiol. 190, 280 (1895)) with a Ringer solution containing 154 mMol NaCl, 5,6 mMol KCl, 1,9 mMol CaCl2, 2,4 mMol NaHCO3 and 5 mMol glucose which was gassed with oxygen. The temperature of the solution was 37° C. The test substances dissolved in propanediol (0,1%) were added to the inflowing Ringer solution by bolus injection into the inflow tract. The effect, i.e. changes of the coronary outflow, was measured with a drop counter and registered on a Hellige Multiscriptor (Hellige GmbH, Freiburg, Germany) For each compound increase in coronary outflow was measured for three different doses and each dose was tested in 6 different heart preparations.

| SMILES | Duration of elevated coronary outflow (single dose 500 ng) | other results |
| --- | --- | --- |
| CC1(C)Oc2ccc(S(=O)(=O)c3ccccc3)cc2[C@@H](N2CCCC2=O)[C@@H]1O (single isomer, unassigned) [Example 5a, (+)-3,4-Dihydro-2,2-dimethyl-6-phenylsulfonyl-4-(2-oxo-1-pyrrolidinyl)-2H-benzo[b]pyran-3-ol] |  | Duration of elevated coronary outflow (single dose 100 ng): 13 min |
| CC1(C)Oc2ccc(S(=O)(=O)c3ccccc3)cc2[C@@H](N2CCCC2=O)[C@@H]1O (relative stereo) [Example 5, 3,4-Dihydro-2,2-dimethyl-6-phenylsulfonyl-trans-4-(2-oxo1-pyrrolidinyl)-2H-benzo[b]pyran-3-ol] |  | Duration of elevated coronary outflow (single dose 400 ng): 11 min |
| COc1cc2c(cc1S(=O)(=O)c1ccccc1)[C@@H](N1CCCC1=O)[C@H](O)C(C)(C)O2 (relative stereo) [Example 3, 3,4-Dihydro-2,2-dimethyl7-methoxy-6-phenylsulfonyl-trans-4-(2-oxo-1-pyrrolidinyl)-2H -benzo[b]-3-ol] | 14 min |  |
| Cc1ccccc1S(=O)(=O)c1ccc2c(c1)[C@@H](N1CCCC1=O)[C@H](O)C(C)(C)O2 (relative stereo) [Example 14, 3,4-Dihydro-2,2-dimethyl-6-(2-methylphenylsulfonyl)-trans4-(2-oxo-1-pyrrolidinyl)-2H-benzo [b]pyran-3-ol] |  | Duration of elevated coronary outflow (single dose 200 ng): 13 min |
| CC1(C)Oc2ccc(C#N)cc2[C@@H](N2CCCC2=O)[C@@H]1O (racemic) [(±)-6-Cyano-3,4-dihydro-2,2-dimethyl-trans-4-(2-oxo-1-pyrrolidinyl)-2H-benzo[b]pyran-3-ol, reference compound] | 6 min |  |
| CC1(C)Oc2ccc(S(C)(=O)=O)cc2[C@@H](N2CCCC2=O)[C@@H]1O (racemic) [(±)-2,2-Dimethyl-3,4-dihydro-6-methylsulfonyl-trans-4-(2-oxo-1-pyrrolidinyl)-2H-benzo[b]pyran-3-ol, reference compound] |  | Duration of elevated coronary outflow (single dose 2000 ng): 5 min |
| COc1cc2c(cc1S(=O)(=O)c1ccccc1)[C@@H](N1CCCC1=O)[C@H](O)C(C)(C)O2 [Example 3a, (+)-3,4-dihydro-2,2-dimethyl-7-methoxy-6-phenylsulfonyl-trans-4-(2-oxo-1-pyrrolidinyl)-2H-benzo[b]pyran-3-ol] | 11 min |  |
| Cc1ccc(S(=O)(=O)c2ccc3c(c2)[C@@H](N2CCCC2=O)[C@H](O)C(C)(C)O3)cc1 (relative stereo) [Example 4, 3,4-Dihydro-2,2-dimethyl-6-(4-methylphenylsulfonyl)-trans-4-(2-oxo-1-pyrrolidinyl)-2H -benzo[b]pyran-3-ol] | 11 min |  |
